The assay addresses T1, human GluN1/GluN2B NMDA receptors (Homo sapiens, UniProt Q05586+Q13224).
T1 construct: expressed in transfected cells
In words: Calcium flux (FLIPR) assay on cloned human NR1/GluN2B ion channels expressed in mammalian cells, standard assay. It is filed as cell-based. As to conditions: glutamate ~EC40 and 10 μM glycine, stable cell line with Tet-On induced expression. How it is done: Effects of Test Articles on Cloned Human NR1/GluN2B Ion Channels Expressed in Mammalian Cells
NMDA receptors are ion channels that are highly permeable to Ca^2+ ions, rendering it possible to monitor NMDA receptor function using cell-based calcium flux assay. In this assay, co-agonists glutamate and glycine are added to cells heterologously expressing human GluN1/GluN2B NMDA receptors to initiate cellular Ca^2+ influx. The time course of the changes in intracellular calcium is measured using a fluorescent dye and a FLIPR (Fluorometric Imaging Plate Reader) device.
Twenty four hours before measurements, the expression of the NMDA receptors in the stable cell line is induced with Tet-On inducible system in the presence of a non-selective NMDA receptor blocker. On the day of the experiment, cell culture media is carefully washed and the cells are loaded with Calcium 5 Dye Kit (Molecular Devices) in dye loading buffer containing 137 mM NaCl, 4 mM KCl, 2 mM CaCl2, 0.5 mM MgCl2 (standard assay) or 1.5 mM MgCl2 (HTS assay), 10 mM HEPES and 5 mM D-glucose; pH 7.4. After 1 h incubation at the room temperature, the dye is washed away with the assay buffer (137 mM NaCl (standard assay) or 150 mM (HTS assay), 4 mM KCl (standard assay) or 3 mM (HTS assay), 2 mM CaC2, 0.01 mM EDTA, 10 mM HEPES and 5 mM D-glucose; pH 7.4) In the FLIPR TETRA reader, various concentrations of the test compounds are added to the cells for 5 min while fluorescence is monitored to detect potential agonist activity. Next, co-agonists, glutamate and glycine are added for another 5 minutes. The concentration of glutamate corresponding to ˜EC40 (standard assay) or EC40 (HTS assay) is used to maximize the assay's signal window and ability to detect NMDA receptor antagonists and negative allosteric modulators. A saturating concentration (10 μM) of glycine is also present in the assay. A non-selective NMDA receptor antagonist, (+)MK-801 is used as a positive control for antagonist activity. The fluorescent signal in the presence of test compounds is quantified and normalized to the signal defined by the appropriate control wells.

Among the data in patent publication US11161846B2, “Substituted pyrazolo[4,3-b]pyridines and their use as GluN2B receptor modulators” (JANSSEN PHARMACEUTICA NV, priority 2019, dated 2021) are IC50 values, retold here.

Where only a bound is given, the exact number is not on record here.

T1 sequence (Q13224 27-1484, other chains not shown): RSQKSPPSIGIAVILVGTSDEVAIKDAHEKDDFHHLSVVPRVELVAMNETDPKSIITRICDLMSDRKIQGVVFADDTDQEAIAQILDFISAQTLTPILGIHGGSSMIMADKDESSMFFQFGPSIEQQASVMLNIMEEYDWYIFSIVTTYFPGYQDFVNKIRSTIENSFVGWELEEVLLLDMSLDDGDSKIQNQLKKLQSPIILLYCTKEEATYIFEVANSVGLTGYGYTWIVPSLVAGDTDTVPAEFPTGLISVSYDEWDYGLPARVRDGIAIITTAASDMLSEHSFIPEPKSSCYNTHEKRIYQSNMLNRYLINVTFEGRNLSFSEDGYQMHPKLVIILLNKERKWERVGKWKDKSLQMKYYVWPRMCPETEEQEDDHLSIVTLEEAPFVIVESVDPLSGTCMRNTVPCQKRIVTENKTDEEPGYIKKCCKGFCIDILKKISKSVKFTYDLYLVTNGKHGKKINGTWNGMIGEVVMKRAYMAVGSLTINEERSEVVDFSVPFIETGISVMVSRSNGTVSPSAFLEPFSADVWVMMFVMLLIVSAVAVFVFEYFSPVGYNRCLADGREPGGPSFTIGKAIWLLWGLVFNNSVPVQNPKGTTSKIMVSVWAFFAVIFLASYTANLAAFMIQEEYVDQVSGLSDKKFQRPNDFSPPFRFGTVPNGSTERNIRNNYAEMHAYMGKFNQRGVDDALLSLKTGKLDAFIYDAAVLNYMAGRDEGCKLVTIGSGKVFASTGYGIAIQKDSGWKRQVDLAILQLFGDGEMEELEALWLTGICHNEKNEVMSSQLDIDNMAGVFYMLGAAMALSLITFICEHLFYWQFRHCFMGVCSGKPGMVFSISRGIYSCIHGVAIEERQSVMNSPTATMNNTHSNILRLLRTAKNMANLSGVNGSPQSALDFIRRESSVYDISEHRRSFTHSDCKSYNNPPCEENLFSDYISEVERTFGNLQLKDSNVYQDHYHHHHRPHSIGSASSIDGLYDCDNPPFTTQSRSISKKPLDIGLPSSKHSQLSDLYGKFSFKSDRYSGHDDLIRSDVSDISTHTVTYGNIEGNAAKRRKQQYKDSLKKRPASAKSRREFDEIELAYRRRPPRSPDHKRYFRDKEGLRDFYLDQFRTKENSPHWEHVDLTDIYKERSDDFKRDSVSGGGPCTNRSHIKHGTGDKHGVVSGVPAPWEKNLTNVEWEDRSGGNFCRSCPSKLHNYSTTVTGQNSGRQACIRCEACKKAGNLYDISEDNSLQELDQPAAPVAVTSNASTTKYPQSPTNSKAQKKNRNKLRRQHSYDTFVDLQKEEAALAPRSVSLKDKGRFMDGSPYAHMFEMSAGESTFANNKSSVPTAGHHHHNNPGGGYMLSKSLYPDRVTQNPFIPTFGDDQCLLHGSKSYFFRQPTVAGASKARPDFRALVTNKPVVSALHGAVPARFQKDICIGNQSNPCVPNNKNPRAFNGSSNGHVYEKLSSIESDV

What is called IC50 is the midpoint of a concentration-inhibition curve. `O=C(Cn1ncc2ncc(-c3cccc(F)c3F)cc21)C1CC1` [Example 64, 1-Cyclopropyl-2-[6-(2,3-difluorophenyl)pyrazolo[4,3-b]pyridin-1-yl]ethanone]: the IC50 was found to be 37 nM. For the molecule `CN1C(=O)CCC1Cn1ncc2ncc(-c3ccc(F)c(C(F)F)c3)cc21` (racemic) [Example 115, (RS)-5-[[6-[3-(Difluoromethyl)-4-fluoro-phenyl]pyrazolo[4,3-b]pyridin-1-yl]methyl]-1-methyl-pyrrolidin-2-one], the IC50 is over 3000 nM. `CC[S+]([O-])Cn1ncc2ncc(-c3ccc(F)c(C(F)F)c3)cc21` (single isomer, unassigned) [Example 84, (S*)-6-(3-(Difluoromethyl)-4-fluorophenyl)-1-((ethylsulfinyl)methyl)-1H-pyrazolo[4,3-b]pyridine]: the IC50 was 29 nM. As for `O=C1NCC(Cn2ncc3ncc(-c4ccc(Cl)c(OC(F)F)c4)cc32)O1` (racemic) [Example 126, (RS)-5-[[6-[4-Chloro-3-(difluoromethoxy)phenyl]pyrazolo[4,3-b]pyridin-1-yl]methyl]oxazolidin-2-one], the IC50 was found to be 306 nM. In the case of `CN1CCC(Cn2ncc3ncc(-c4ccc(F)c(C(F)F)c4)cc32)C1=O` (racemic) [Example 116, (RS)-3-[[6-[3-(Difluoromethyl)-4-fluoro-phenyl]pyrazolo[4,3-b]pyridin-1-yl]methyl]-1-methyl-pyrrolidin-2-one] it was 303 nM; in that of `O=C1NCC(Cn2ncc3ncc(-c4ccc(F)c(C(F)F)c4)cc32)O1` (racemic) [Example 20, (RS)-5-[[6-[3-(Difluoromethyl)-4-fluoro-phenyl]pyrazolo[4,3-b]pyridin-1-yl]methyl]oxazolidin-2-one], 197 nM.

`CN1CC(Cn2ncc3ncc(-c4ccc(F)c(C(F)F)c4)cc32)CC1=O` (racemic) [Example 120, (RS)-4-[[6-[3-(Difluoromethyl)-4-fluoro-phenyl]pyrazolo[4,3-b]pyridin-1-yl]methyl]-1-methyl-pyrrolidin-2-one]: the IC50 was found to be 89 nM. In the case of `CN1CCC(Cn2ncc3ncc(-c4ccc(F)c(OC(F)F)c4)cc32)C1=O` (racemic) [Example 119, (RS)-3-((6-(3-(Difluoromethoxy)-4-fluorophenyl)-1H-pyrazolo[4,3-b]pyridin-1-yl)methyl)-1-methylpyrrolidin-2-one] it was 352 nM; in that of `CCC(F)(F)Cn1ncc2ncc(-c3ccc(F)c(C(F)F)c3)cc21` [Example 98, 1-(2,2-Difluorobutyl)-6-[3-(difluoromethyl)-4-fluoro-phenyl]pyrazolo[4,3-b]pyridine], 89 nM; in that of `ON=C(Cn1ncc2ncc(-c3ccc(F)c(C(F)F)c3)cc21)C1CC1` (mixture of isomers) [Example 107, (E/Z)-1-Cyclopropyl-2-[6-[3-(difluoromethyl)-4-fluoro-phenyl]pyrazolo[4,3-b]pyridin-1-yl]ethanone oxime], 65 nM. As for `O=C(Cn1ncc2ncc(-c3ccc(F)c(C(F)F)c3)cc21)c1ncccc1F` [Example 140, 2-(6-(3-(Difluoromethyl)-4-fluorophenyl)-1H-pyrazolo[4,3-b]pyridin-1-yl)-1-(3-fluoropyridin-2-yl)ethan-1-one], the IC50 came out at 191 nM. The same measure for `CN1C(=O)OCC1Cn1ncc2ncc(-c3ccc(F)c(OC(F)F)c3)cc21` (racemic) [Example 123, (RS)-4-((6-(3-(difluoromethoxy)-4-fluorophenyl)-1H-pyrazolo[4,3-b]pyridin-1-yl)methyl)-3-methyloxazolidin-2-one]: 2830 nM; for `O=C1NC[C@H](Cn2ncc3ncc(-c4ccc(F)c(C(F)F)c4)cc32)O1` [Example 22, (R)-5-[[6-[3-(Difluoromethyl)-4-fluoro-phenyl]pyrazolo[4,3-b]pyridin-1-yl]methyl]oxazolidin-2-one]: 187 nM; for `CCC(=O)Cn1ncc2ncc(-c3cccc(C(F)F)c3)cc21` [Example 30, 1-[6-[3-(Difluoromethyl)phenyl]pyrazolo[4,3-b]pyridin-1-yl]butan-2-one]: 27 nM. With `CCN1C[C@H](Cn2ncc3ncc(-c4ccc(F)c(C(F)F)c4)cc32)OC1=O` [Example 133, (R)-5-[[6-[3-(Difluoromethyl)-4-fluoro-phenyl]pyrazolo[4,3-b]pyridin-1-yl]methyl]-3-ethyl-oxazolidin-2-one], the IC50 was found to be 204 nM.

Consider `O=C(Cn1ncc2ncc(-c3cc(F)c(F)c(F)c3)cc21)C1CC1` [Example 9, 1-Cyclopropyl-2-[6-(3,4,5-trifluorophenyl)pyrazolo[4,3-b]pyridin-1-yl]ethanone], for which the IC50 stood at 30 nM. With `CC(C)C(=O)Cn1ncc2ncc(-c3ccc(F)c(F)c3F)cc21` [Example 54, 3-Methyl-1-[6-(2,3,4-trifluorophenyl)pyrazolo[4,3-b]pyridin-1-yl]butan-2-one], the IC50 was 205 nM. In the case of `O=C(Cn1ncc2ncc(-c3ccc(F)c(F)c3)cc21)C1CC1` [Example 65, 1-Cyclopropyl-2-[6-(3,4-difluorophenyl)pyrazolo[4,3-b]pyridin-1-yl]ethanone] it was 13 nM; in that of `O=C(Cn1ncc2ncc(-c3cccc(OC(F)(F)F)c3)cc21)C1CC1` [Example 63, 1-Cyclopropyl-2-[6-[3-(trifluoromethoxy)phenyl]pyrazolo[4,3-b]pyridin-1-yl]ethanone], 31 nM. `O=C(Cn1ncc2ncc(-c3ccc(F)c(C(F)F)c3)cc21)c1ncc(F)cc1F` [Example 141, 2-(6-(3-(Difluoromethyl)-4-fluorophenyl)-1H-pyrazolo[4,3-b]pyridin-1-yl)-1-(3,5-difluoropyridin-2-yl)ethan-1-one]: the IC50 came to 409 nM. Take `Cc1cc(F)ccc1-c1cnc2cnn(CC(=O)C(C)C)c2c1` [Example 52, 1-[6-(4-Fluoro-2-methyl-phenyl)pyrazolo[4,3-b]pyridin-1-yl]-3-methyl-butan-2-one]: the IC50 came out at 90 nM.

On to `CN1C[C@H](Cn2ncc3ncc(-c4ccc(F)c(C(F)F)c4)cc32)CC1=O` [Example 122, (R)-4-[[6-[3-(Difluoromethyl)-4-fluoro-phenyl]pyrazolo[4,3-b]pyridin-1-yl]methyl]-1-methyl-pyrrolidin-2-one], for which the IC50 is 120 nM.

In the case of `CN1C(=O)OCC1Cn1ncc2ncc(-c3ccc(F)c(C(F)F)c3)cc21` (racemic) [Example 124, (RS)-4-[[6-[3-(Difluoromethyl)-4-fluoro-phenyl]pyrazolo[4,3-b]pyridin-1-yl]methyl]-3-methyl-oxazolidin-2-one], the IC50 worked out at 1890 nM.

Turning to `FC(F)(F)c1cccc(-c2cnc3cnn(CC4CCCO4)c3c2)c1` (racemic) [Example 111, (RS)-1-(Tetrahydrofuran-2-ylmethyl)-6-[3-(trifluoromethyl)phenyl]pyrazolo[4,3-b]pyridine], the IC50 stood at 93 nM.

In the case of `O=C(Cn1ncc2ncc(-c3ccc(F)c(Cl)c3)cc21)C1CC1` [Example 68, 2-[6-[3-Chloro-4-fluoro-phenyl)pyrazolo[4,3-b]pyridin-1-yl]-1-cyclopropyl-ethanone], the IC50 was found to be 7 nM. In the case of `CC[S+]([O-])Cn1ncc2ncc(-c3cc(F)c(F)c(F)c3)cc21` (racemic) [Example 88, (RS)-1-(Ethylsulfinylmethyl)-6-(3,4,5-trifluorophenyl)pyrazolo[4,3-b]pyridine], the IC50 was found to be 736 nM. In the case of `CN1CC[C@@H](Cn2ncc3ncc(-c4ccc(F)c(C(F)F)c4)cc32)C1=O` [Example 117, (S)-3-[[6-[3-(Difluoromethyl)-4-fluoro-phenyl]pyrazolo[4,3-b]pyridin-1-yl]methyl]-1-methyl-pyrrolidin-2-one] it was 1210 nM; in that of `Fc1ccc(-c2cnc3cnn(CC4CCOC4)c3c2)cc1C(F)F` (racemic) [Example 113, (RS)-6-[3-(Difluoromethyl)-4-fluoro-phenyl]-1-(tetrahydrofuran-3-ylmethyl)pyrazolo[4,3-b]pyridine], 23 nM. With `CCC(=O)Cn1ncc2ncc(-c3ccc(F)c(F)c3F)cc21` [Example 43, 1-[6-(2,3,4-Trifluorophenyl)pyrazolo[4,3-b]pyridin-1-yl]butan-2-one], the IC50 came to 28 nM. `O=C(Cn1ncc2ncc(-c3ccc(F)c(F)c3F)cc21)C1CC1` [Example 79, 1-Cyclopropyl-2-[6-(2,3,4-trifluorophenyl)pyrazolo[4,3-b]pyridin-1-yl]ethanone]: the IC50 is 30 nM. Take `CC(C)C(Cn1ncc2ncc(-c3cccc(C(F)(F)F)c3)cc21)=NO` (mixture of isomers) [Example 6, (E/Z)-3-Methyl-1-[6-[3-(trifluoromethyl)phenyl]pyrazolo[4,3-b]pyridin-1-yl]butan-2-one oxime]: the IC50 is 2480 nM.
